Assay results taken from patent US20040072258A1, “Isoprenoid-dependent ras anchorage (idra) proteins” (priority 2003, published 2004).
“Also recorded” adds a separate entry of the source. One block for each compound: values may come before it.

How the values were obtained:
Ras-transformed cells = conditions: Aharonson et al., 1998; cited from earlier work
[1] = test system: K-Ras 4B (12V), N-Ras (13V) and N-Ras (61L); conditions: membranes of rodent fibroblasts and of human tumor cell lines; cited from earlier work
membrane Ras = target: T1, membrane Ras (Homo sapiens, UniProt P01112, G12V); assay: Membrane Ras in intact EJ cells treated with FTS or GTS; assay type: cell-based, rat; conditions: without cross-linking, data not shown
T1 construct: expressed in transfected cells; host or cells: Rat-1 fibroblasts stably transformed with H-Ras (12V) (EJ cells)
Text: (§1) In agreement with previous results [Kloog et al., 1999] FTS, but not GTS, reduced the amount of membrane Ras in the cells by 50-60% (data not shown). Similarly, FTS (but not GTS) induced a 90% reduction in the amount of membrane galectin-1 (FIG. 3). Thus, the magnitude of the FTS-induced galectin-1 decrease was much greater than that of Ras.

[2] = target: T2, Ras-IDRA complex (34-43 kDa) (Rattus norvegicus, UniProt P11762); assay: Chemical cross-linking (DSS/DSP) of Ras-IDRA complexes in EJ cells and membranes, SDS-PAGE, Ras Ab immunoblot, purification; assay type: cell-based
T2 construct: expressed in transfected cells; host or cells: EJ cells (Rat-1 transformed with H-Ras (12V)) and their membranes; galectin-1 is endogenous
T2 sequence (P11762 2-135 limits assumed, one chain of several): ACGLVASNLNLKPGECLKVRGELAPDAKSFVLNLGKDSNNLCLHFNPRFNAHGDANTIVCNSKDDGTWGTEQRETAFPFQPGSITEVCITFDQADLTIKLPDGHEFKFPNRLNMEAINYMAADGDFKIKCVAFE
Procedure: FIG. 1 is a photograph of an electrophoretic gel illustrating use of Ras antibodies and chemical cross-linkers for identification of Ras IDRA complexes that are sensitive to the Ras inhibitor, FTS. Ras antibodies (Ab) identify Ras and Ras-IDRA complex in EJ cell membranes. Membranes corresponding to 10^6 control or FTS (50 μM)-treated EJ cells were incubated in 50 mM sodium bicarbonate buffer, pH 8.5, containing protease inhibitors and 2% DMSO (no cross-linker controls) or the indicated concentrations of the cross-linkers DSS or DSP. Samples of Triton X-100 extracts of the membranes were subjected to SDS-PAGE under non-reducing conditions followed by Western immunoblotting with Ras Ab. Open arrow corresponds to Ras (21 kDa) and closed arrow corresponds to the major Ras-putative IDRA band (34-43 kDa) detected in the blot under these conditions. This band is not detected in the blots of the non cross-linked samples or in the blots of the cross-linked samples of FTS-treated cells.
We used chemical cross-linkers in an attempt to identify the rapidly dissociating complexes of Ras and Ras-interacting proteins. […] When membranes of control and FTS-treated cells were exposed to these cross-linkers solubilized and fractionated on SDS-containing gels, Ras-immunoreactive bands were clearly detected at 34-43 kDa, 50 kDa, and 70 kDa (FIG. 1). […]

myr-Ras = conditions: myr-Ras-transformed cells; cited from earlier work
[3] = test system: H-Ras-transformed Rat-I (EJ) fibroblasts; conditions: cited from earlier work
[4] = test system: cells transformed with the farnesylated but unmethylated K-Ras 4B (12V) CVYL isoform; conditions: cited from earlier work
H-Ras [5] = conditions: cited from earlier work
membrane galectin-1 = target: T3, membrane galectin-1 (Rattus norvegicus, UniProt P11762); assay: Membrane galectin-1 in intact EJ cells treated with FTS or GTS (Western blot); assay type: cell-based; conditions: for reduction in the amount of membrane galectin-1: intact EJ cells, without cross-linking, Western blot (FIG. 3)
T3 construct: endogenous in cells; host or cells: EJ cells (H-Ras (12V)-transformed Rat-1 fibroblasts)
T3 sequence (P11762 whole entry): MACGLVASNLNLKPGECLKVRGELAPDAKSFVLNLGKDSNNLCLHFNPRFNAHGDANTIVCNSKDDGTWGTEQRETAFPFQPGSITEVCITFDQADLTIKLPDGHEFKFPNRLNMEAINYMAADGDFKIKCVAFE
Text: FIG. 3 is a photograph of a Western blot of galectin-1 isolated from cells in the presence of a control, FTS and GTS.
Yet another aspect of the present invention is directed to a method of determining efficacious dosages of a Ras antagonist that disrupts Ras-anchor protein binding. In general, the method entails contacting cells with the antagonist in vivo or in vitro, collecting the cells following the contacting, isolating cell membranes from the collected cells, measuring decrease in anchor protein concentration per unit of cell membrane protein, and correlating the decrease with dosage of the Ras antagonist. In a preferred embodiment, a method for measuring the biological action of FTS and its analogs in vivo and in vitro is based on the suppression of the immunoassayable galectin-1 in H-Ras-transformed tumors. The basis of this assay depends upon the dose dependent loss of galectin-1 from cell membranes by FTS. Under maximal stimulation of tumor cells with FTS, 90% of galectin-1 is lost from membrane. This allows for an excellent dose response. A variation of this assay uses drug induced suppression of the anchor proteins in normal human lymphocytes isolated from patients being treated with FTS in phase 1 clinical trials. A dose of FTS or any other Ras antagonist that maximally suppresses galectin-1 (or the respective anchor protein of the antagonist) should be a dose that produces effects on other biological endpoints in vivo. When such assay is in mice and humans, therapeutically efficacious doses of Ras antagonists for humans can be determined.
as §1

[6] = test system: cells transformed by v-Raf; conditions: v-Raf acts independently of Ras; cited from earlier work
[7] = test system: fibroblasts transformed by ErbB2; conditions: ErbB2 acting upstream of Ras; cited from earlier work
[8] = test system: prenylated Rac-1 and Rho A; conditions: human melanoma cells; cited from earlier work
H-Ras [9] = target: H-Ras (Homo sapiens, UniProt P01112, G12V); conditions: intact cells in vitro; dislodging H-Ras from its anchorage domains; cited from earlier work
Ras methylation = conditions: in vitro; cited from earlier work
[10] = test system: prenylated Gβγ-subunits of heterotriimeric G-proteins; conditions: Rat-1 cell membranes; cited from earlier work

SMILES: COC(=O)c1ccccc1SCC=C(C)CCC=C(C)CCC=C(C)C [carboxy methylester analogue]
- inhibition of growth of Ras-transformed cells (Ras-transformed cells): not

- reduction of the amount of membrane Ras in the cells (membrane Ras): 50-60%
- 34-43 kDa Ras-putative IDRA cross-linked band ([2]; FTS (50 μM)-treated EJ cells or membranes, DSS or DSP, Ras Ab blot (FIG. 1)): not detected; also recorded: not present
- levels of endogenous galectin-1 in EJ cells (membrane galectin-1; EJ cells, in parallel with the decrease in Ras): decreased the levels
- reduction in the amount of membrane galectin-1 (membrane galectin-1): 90%
SMILES: CC(C)=CCC/C(C)=C/CC/C(C)=C/CSc1ccccc1C(=O)O [FTS, S-trans, trans-farnesylthiosalicylic acid]
- dislodging of K-Ras 4B (12V), N-Ras (13V) and N-Ras (61L) from membranes [1]: dislodges
- amount of galectin-1 purified from cross-linked complexes of treated EJ cells ([2]; FTS-treated EJ cells, Western blot (FIG. 2)): reduces the amounts of anchor; also recorded: very low
- effect on myr-Ras (myr-Ras): no effect
- growth inhibition ([3]; H-Ras-transformed Rat-I (EJ) fibroblasts): potent growth inhibitor
- effective concentration range ([3]; affected specifically the membrane-bound H-Ras protein in these cells): 5 to 50 µM
- inhibition of growth of K-Ras 4B (12V) CVYL-transformed cells [4]: inhibits growth
- inhibition of farnesylation of H-Ras (H-Ras [5]): did not inhibit
- inhibition of growth of v-Raf-transformed cells [6]: not the growth
- inhibition of growth of ErbB2-transformed fibroblasts [7]: inhibits the growth
- reduction of the amounts of prenylated Rac-1 and Rho A [8]: did not reduce
- total amount of cellular Ras (H-Ras [9]): reduced the total amount of cellular Ras
- inhibition of Ras methylation (Ras methylation): inhibit
- inhibition of growth of Ras-transformed cells (Ras-transformed cells): inhibited growth
- dislodging of prenylated Gβγ-subunits from membranes [10]: did not dislodge

- reduction of the amount of membrane Ras in the cells (membrane Ras): not
- reduction in the amount of membrane galectin-1 (membrane galectin-1): no effect and not
SMILES: CC(C)=CCC/C(C)=C/CSc1ccccc1C(=O)O [GTS]
- inhibition of growth of Ras-transformed cells (Ras-transformed cells): not

SMILES: CC(C)=CCC/C(C)=C/CC/C(C)=C/CC/C(C)=C/CSc1ccccc1C(=O)O [GGTS]
- inhibition of growth of Ras-transformed cells (Ras-transformed cells): inhibited growth
